Experimental findings from ChEMBL document CHEMBL1136100, “4-Aminopiperidine derivatives as a new class of potent cognition enhancing drugs” (2003) are described below.

What all share (format): functional
Assay [1] deals with Mus musculus. The assay can be described thus: Cognition enhancing activity was evaluated by mouse passive-avoidance test using Scopolamine as amnesing drug administered intraperitoneally.
The species entered for assay [2] is Mus musculus. The experiment in a line: Cognition enhancing activity was evaluated by mouse passive-avoidance test using Scopolamine as amnesing drug after 2nd day.
Assay [3] is filed under the species Mus musculus. The assay can be described thus: Difference between entry latency of cognition enhancing activity between 2nd day and 1st day.
The species entered for assay [4] is Mus musculus. The experiment in a line: Cognition enhancing activity was evaluated by mouse passive-avoidance test using Scopolamine as amnesing drug after 1st day.

`CC(=O)N1CCN(S(=O)(=O)c2ccc(F)cc2)CC1`: in the assay on Mus musculus [1], the Min effective dose was 0.01 mg/kg.

As for `CC(=O)N1CCC(NS(=O)(=O)C(C)C)CC1`, the Entry latency in the assay filed under Mus musculus [2] was found to be 99.3 s; in the assay filed under Mus musculus [3], 84.2 s; in the assay filed under Mus musculus [4] it was 15.1 s. The Min effective dose in the assay on Mus musculus [1] is 10 mg/kg.

In the case of `CC(=O)N1CCC(NS(=O)(=O)c2ccc(F)cc2)CC1`, the figures for the Entry latency in the assay filed under Mus musculus [2], in the assay filed under Mus musculus [3] and in the assay filed under Mus musculus [4] were 126.8 s, 92.6 s and 23.5 s, respectively. The Min effective dose in the assay with Mus musculus [1] was 0.1 mg/kg.

For `CC(=O)N1CCN(C(=O)c2ccccc2)CC1`, the Min effective dose in the assay with Mus musculus [1] worked out at 10 mg/kg.

`CCC(=O)N1CCN(C(=O)c2ccccc2)CC1`: the Min effective dose in the assay on Mus musculus [1] stood at 0.01 mg/kg.

Turning to `NC(=O)CN1CCCC1=O`, in the assay on Mus musculus [1], the Min effective dose amounted to 30 mg/kg.

Regarding `CCC(=O)N1CCC(NS(=O)(=O)C(C)C)CC1`, the Entry latency stood at 96.9 s in the assay listed under Mus musculus [2], 82.4 s in the assay listed under Mus musculus [3] and 14.5 s in the assay filed under Mus musculus [4]. In addition, the Min effective dose in the assay on Mus musculus [1] stood at 10 mg/kg.

On to `CCC(=O)N1CCC(NS(=O)(=O)c2ccc(F)cc2)CC1`, for which the Entry latency is listed as 108.2 s in the assay listed under Mus musculus [2], 103 s in the assay filed under Mus musculus [3] and 15.6 s in the assay filed under Mus musculus [4]. In addition, the Min effective dose in the assay with Mus musculus [1] was determined as 10 mg/kg.

Consider `CCC(=O)NC1CCN(S(=O)(=O)c2ccc(F)cc2)CC1`, for which the Entry latency stood at 103.4 s in the assay listed under Mus musculus [2], 85.8 s in the assay filed under Mus musculus [3] and 17.6 s in the assay listed under Mus musculus [4]. In the assay with Mus musculus [1], the Min effective dose amounted to 0.1 mg/kg.

Turning to `CC(=O)NC1CCN(S(=O)(=O)c2ccc(F)cc2)CC1`, the Entry latency in the assay filed under Mus musculus [2] amounted to 90.6 s; in the assay listed under Mus musculus [3], 76.1 s; in the assay filed under Mus musculus [4], 14.5 s. Also, the Min effective dose in the assay with Mus musculus [1] turned out to be 0.01 mg/kg.

As for `CCC(=O)N1CCC(NC(=O)c2ccccc2)CC1`, the Entry latency in the assay listed under Mus musculus [2] amounted to 122.8 s; in the assay filed under Mus musculus [3], 103.1 s; in the assay filed under Mus musculus [4], 19.7 s. The Min effective dose in the assay with Mus musculus [1] turned out to be 0.1 mg/kg.

Take `CC(=O)NC1CCN(S(=O)(=O)C(C)C)CC1`: the figures for the Entry latency in the assay filed under Mus musculus [2], in the assay listed under Mus musculus [3] and in the assay listed under Mus musculus [4] were 89.7 s, 75.4 s and 14.3 s, respectively. Also, in the assay with Mus musculus [1], the Min effective dose amounted to 1 mg/kg.

`CCC(=O)NC1CCN(S(=O)(=O)C(C)C)CC1`: the Entry latency in the assay listed under Mus musculus [2] came out at 102.8 s; in the assay filed under Mus musculus [3] it was 88.6 s; in the assay filed under Mus musculus [4] it was 14.2 s. For the same molecule, the Min effective dose in the assay on Mus musculus [1] is 10 mg/kg.

As to `CC(=O)NC1CCN(C(=O)c2ccccc2)CC1`, the results for the Entry latency in the assay listed under Mus musculus [2], in the assay listed under Mus musculus [3] and in the assay filed under Mus musculus [4] were 113.5 s, 100.7 s and 12.8 s, respectively. The Min effective dose in the assay with Mus musculus [1] was determined as 10 mg/kg.

With `CCC(=O)NC1CCN(C(=O)c2ccccc2)CC1`, the Entry latency in the assay filed under Mus musculus [2] was determined as 121 s; in the assay listed under Mus musculus [3] it was 103 s; in the assay listed under Mus musculus [4] it was 18 s. The Min effective dose in the assay with Mus musculus [1] was 0.1 mg/kg.

In the case of `CCC(=O)N1CCN(S(=O)(=O)c2ccc(F)cc2)CC1`, in the assay with Mus musculus [1], the Min effective dose amounted to 0.01 mg/kg.

For the molecule `CN1[C@@H]2C[C@@H](OC(=O)[C@H](CO)c3ccccc3)C[C@H]1[C@@H]1O[C@@H]12` [SCOPOLAMINE], the Entry latency was found to be 44.5 s in the assay filed under Mus musculus [2] and 27.9 s in the assay filed under Mus musculus [3]. In addition, the Min effective dose in the assay with Mus musculus [1] worked out at 1.5 mg/kg.
